Data taken from patent US9121022B2, “Method for controlling herbicide-resistant plants” (priority 2010, dated 2015).
Where a name gives a salt, the structure may show the parent alone. {Alexa488} = Alexa Fluor 488 (Invitrogen) label

Experiments:
[1] = test system: glyphosate-resistant Palmer amaranth containing 16 copies of EPSPS; assay: glyphosate counter-ions with EPSPS polynucleotides, percent control and plant height (Example 35, Table 29); type: in vivo; details: for Palmer control (%): Table 29: glyphosate salt 1682 g acid equivalent per hectare, with or without EPSPS polynucleotides IDT [1]-[4] in 0.5% SILWET L-77, 2% ammonium sulfate, 16-copy EPSPS Palmer amaranth, 3 replicates
Text: FIG. 38 depicts the effect of varying glyphosate counter-ions on herbicidal activity (presented as percent of weed control/kill, and as plant height) of topically applied polynucleotides (RNA) on glyphosate-resistant Palmer amaranth plants. A mixture of EPSPS polynucleotides (IDT [1] (SEQ ID NO:83-84), IDT [2] (SEQ ID NO:85-86), IDT [3] (SEQ ID NO:87-88), and IDT [4] (SEQ ID NO:89-90)) in 0.5% SILWET L-77® brand surfactant, 2% ammonium sulfate in 10 millimolar sodium phosphate buffer, pH 6.8 with 0.2% Roundup® WeatherMax® carrier (MON56151 tallowamine surfactant blend of tallowamine (16-18C) and cocoamine (12-14C) in the ratio of 55:45) and 1682 g acid equivalent per hectare of one of the glyphosate salts; K+ glyphosate, isopropylammonium+ glyphosate or monoethanolammonium+ glyphosate at 215 liters/acre by Milli spray on 3 replicates of 4-6 inch glyphosate-resistant Palmer amaranth containing 16 copies of EPSPS. Plant height was scored at 21 days after glyphosate treatment.

[2] = test system: Glyphosate-resistant Palmer amaranth plants (33, 36, or 57 copies EPSPS); assay: spermine, spermidine or ammonium sulfate with dsRNA then glyphosate (Example 35, FIG. 39); type: in vivo; details: for performance compared with 2% ammonium sulfate: 1 or 10 millimolar
Experimental: The effect of the polyamine cations spermine (N,N′-bis(3-aminopropyl)butane-1,4-diamine) and spermidine (N-(3-aminopropyl)butane-1,4-diamine) on herbicidal activity of topically applied polynucleotides (RNA) on glyphosate-resistant Palmer amaranth plants was investigated. […] The dsRNA polynucleotide solutions were prepared with either 1 or 10 millimolar spermine or spermidine or 2% ammonium sulfate, in a 10 millimolar sodium phosphate (pH 6.8) buffer. Control solutions (without polynucleotides) were prepared with either 1 or 10 millimolar spermine or spermidine or 2% ammonium sulfate, in a 10 millimolar sodium phosphate (pH 6.8) buffer. Glyphosate-resistant Palmer amaranth plants (33, 36, or 57 copies EPSPS) were pre-sprayed with 1% SILWET L-77® brand surfactant. The dsRNA polynucleotide solutions (11.6 grams/acre) or buffer solutions were applied as drops on four lower fully expanded leaves of glyphosate resistant Palmer amaranth by pipetting. Two days following polynucleotide treatment the plants were sprayed with glyphosate (3360 g acid equivalent per hectare of Roundup® WeatherMAX® brand herbicide).

[3] = test system: detached leaves of glyphosate-resistant Palmer amaranth; assay: petiole uptake of fluorescently labelled ssDNA oligonucleotide into detached leaves (Example 9); set-up: species or system Palmer amaranth (Amaranthus palmeri)
Experimental: Petioles of detached leaves of glyphosate-resistant Palmer amaranth were placed in 200 mM sucrose solution with fluorescently labelled ssDNA oligonucleotides (SEQ ID NO:15). Leaf images were taken by Bio-Rad PharosFX imager equipped with a 488 nm laser from 4 h up to 48 h after uptake through petiole. Leaves incubated with 200 mM sucrose alone served as control.

[4] = test system: glyphosate-resistant Palmer amaranth plants; assay: additives (salts, EDTA, glycerin) to polynucleotide spray solutions, percent control and plant height (Example 35, Tables 26-28); type: in vivo; details: additive in spray solution
Text: The efficacy of different substances (including salts, a chelating agent, a humectant, and polyamines) as polynucleotide transferring agents or as enhancers of a known polynucleotide transferring agent was investigated.

[5] = test system: Nicotiana benthamiana phytoene desaturase; assay: single PDS ssDNA 22-mer on tobacco: bleaching of organs, seed set, germination (Example 12); type: in vivo
Experimental: Four-week old tobacco (Nicotiana benthamiana) plants were used in all treatments. Two fully expanded leaves (one cotyledon, one true leaf) were conditioned by dipping into freshly made surfactant solution (0.1% SILWET L-77® brand surfactant in double-distilled water) for a few seconds and allowed to dry for 15-30 minutes. Twenty microliters of a single-stranded DNA (ssDNA) 22-mer oligonucleotide with the sequence […] (SEQ ID NO:39), corresponding to the nucleotides at positions 1099-1120 of Nicotiana benthamiana phytoene desaturase (SEQ ID NO:2) was applied as a 25 micromolar solution in 0.01% SILWET L-77® brand surfactant in 5 millimolar sodium phosphate buffer, pH 6.8 to the top surface of each conditioned leaf for a total of 40 microliters (1 nanomole oligonucleotide) per plant. Control plants were treated with the SILWET® brand surfactant solution without the DNA oligonucleotide.
Flowers of both control and ssDNA-treated plants were allowed to set seed. Seeds were collected from mature fruits, weighed, and allowed to germinate. Seed weights were identical (about 11 mg per 100 seeds) and seed morphology appeared similar between the ssDNA-treated and the control plants.
In a separate assay using a similar procedure, tobacco plants were conditioned by dipping in 0.1% SILWET L-77® brand surfactant in double-distilled water, allowed to dry for 15-30 minutes, and treated with the PDS ssDNA 22-mer (SEQ ID NO:39) applied as a 25 micromolar solution in 0.01% SILWET L-77® brand surfactant in 5 millimolar sodium phosphate buffer, pH 6.8 to the top surface of each conditioned leaf for a total of 40 microliters (1 nanomole oligonucleotide) per plant. Other plants were not conditioned with a surfactant treatment, but were treated only with 1 nanomole of the PDS ssDNA 22-mer (SEQ ID NO:39) applied either by infiltration with a needleless syringe (shown in FIG. 18B) or by hand application of drops to the leaf surface (not shown in FIG. 18B), and either as a 25 micromolar solution in 0.01% SILWET L-77® brand surfactant in 5 millimolar sodium phosphate buffer, pH 6.8 or as a 25 micromolar solution in 5 millimolar sodium phosphate buffer, pH 6.8 (without surfactant). Negative control plants were treated with the SILWET® brand surfactant buffer solution without the DNA oligonucleotide. Results are depicted in FIG. 18B.

[6] = test system: volunteer glyphosate-resistant corn plants; assay: synthetic Pol III gene dsDNA on volunteer glyphosate-resistant corn in soybean (Example 8); type: in vivo; details: glyphosate 7 days after dsDNA; 15 days later
Text: This example illustrates the utility of employing a synthetic Pol III gene in compositions and methods of this invention. With reference to SEQ ID NO:3 and FIG. 2, a synthetic Pol III gene is created using elements from an Arabidopsis thaliana U6 snRNA gene to provide a dsDNA molecule with two copies of RGCCCR elements (bold and underlined), an upstream sequence element (USE) having the sequence “[…]” (SEQ ID NO:4, bold and underlined), a TATA box (bold and underlined), a “G” nucleotide (bold and underlined), anti-sense DNA (italics) corresponding to a bacterial DNA encoding an EPSPS protein (see U.S. Pat. RE39,247) that imparts resistance to glyphosate herbicide when expressed in transgenic corn plants, an “[…]” element (SEQ ID NO:5, bold and underlined) embedded in the anti-sense DNA, an “[…]” element (SEQ ID NO:6, bold and underlined) followed by sense DNA (lower case) and a “TTTTTT” terminator element (SEQ ID NO:7, bold and underlined). A solution of 0.1 wt % SILWET L-77® brand organosilicone surfactant and a solution of multiple copies of the dsDNA molecule are sprayed onto leaves of volunteer glyphosate-resistant corn plants growing in a field of glyphosate-resistant soybean plants, followed 7 days later by treatment with Roundup WeatherMAX® brand glyphosate herbicide. […]

## O=C(O)CNCP(=O)([O-])O.[K+] [K + glyphosate]
[1]
  Palmer control (%): 23%

## NCCCCNCCCN [spermidine, N-(3-aminopropyl)butane-1,4-diamine]
[2]; 10 mM, without polynucleotides
  effect on 33-copy plants of polyamine alone: stunted
[2]
  performance compared with 2% ammonium sulfate: neither spermine nor spermidine at 1 or 10 millimolar performed as well as 2% ammonium sulfate

## ACCCTCCACGACTGCCCTTT (DNA, 5' {Alexa488}, backbone not given here; listed as Amaranthus palmeri) [Anti-sense_PO1_488, ssDNA anti-sense to Amaranthus palmeri EPSPS]
[3]; after treatment
  time of release from vascular tissue into cells: 8 h
[3]; petiole uptake in 200 mM sucrose, imaged 4 h to 48 h
  vascular uptake into leaf: slightly time-dependent vascular uptake

## CC(C)N.O=C(O)CNCP(=O)(O)O [IPA + glyphosate]
[1]
  Palmer control (%): 9%

## CCCC[P+](CCCC)(CCCC)CCCC.[Br-] [tetrabutylphosphonium bromide]
[4]
  effect of additive on efficacy of the polynucleotides and herbicidal activity of glyphosate: act similarly to ammonium sulfate

## GGCAGTACAATTAAAGGAGATG (DNA, backbone not given here; listed as Nicotiana benthamiana) [SEQ ID NO:39]
[5]; 1 nanomole by infiltration or hand application of drops, no conditioning
  bleaching without surfactant conditioning (FIG. 18B): displayed bleaching of apical leaves, stems, and flowers
[5]; 1 nanomole per plant after surfactant conditioning
  bleaching of apical leaves, stems, and flowers (FIG. 18A): all displayed bleaching
[5]; seeds from ssDNA-treated plants, control 95 out of 100
  germination rate: 4 out of 100
[5]; seeds from ssDNA-treated plants, identical to control
  seed weight: about 11 mg per 100 seeds

## OCC(O)CO [Glycerin, glycerin]
[4]
  effect of additive on efficacy of the polynucleotides and herbicidal activity of glyphosate: enhance the efficacy of the polynucleotides

## NCCO.O=C(O)CNCP(=O)(O)O [MEA + glyphosate]
[1]
  Palmer control (%): 9%

## O=C(O)CNCP(=O)(O)O [isopropylammonium salt of glyphosate, glyphosate, reference compound]
[1]; 1682 g ae/ha glyphosate salt with IDT [1]-[4], 21 days after glyphosate treatment
  herbicidal activity by glyphosate salt: better herbicidal activity compared to the potassium salt

## O=C(O)CN(CCN(CC(=O)O)CC(=O)O)CC(=O)O [ethylenediaminetetraacetic acid (EDTA), ethylenediaminetetraacetic acid]
[4]
  effect of additive on efficacy of the polynucleotides and herbicidal activity of glyphosate: act similarly to 2% ammonium sulfate

## NCCCNCCCCNCCCN [spermine, N,N′-bis(3-aminopropyl)butane-1,4-diamine]
[2]
  performance compared with 2% ammonium sulfate: neither spermine nor spermidine at 1 or 10 millimolar performed as well as 2% ammonium sulfate

## Cl.N [ammonium chloride]
[4]
  effect of additive on efficacy of the polynucleotides and herbicidal activity of glyphosate: act similarly to ammonium sulfate

B1: synthetic Pol III gene: dsDNA from Arabidopsis U6 snRNA gene elements with anti-sense and sense DNA of bacterial EPSPS (nucleic acid)
DNA: GGCCCATAGGCCTTTTTCTAAAATAGGCCCATTTAAGCTATTAACAATCTTCAAAAGTACCACATCGCTTAGGTAAAGAAAGCAGCTGAGTTTATATATGGTTAGAGACGAAGTAGTGATTGCGACGAGCGACGTCTCGCCCTCATCGCAATCCACGCCATTGAGCTTGAGGCCATTGGCGACGGCCGAGAGGCGGTCGCTTAAGATTAGCATGTCCTTGACGCGGAGTTCTTCCAGACCGTTCATCACGGTCGCCCCTTCCGCGAAGGCGGCGGCGACAGCGAGAATCGGATATTCGTCGATCATCGAAGGCGCGCGGTCTTCCGGCACCGTGACGCATAAACACGGTGCCGGAAGACCGCGCGCCTTCGATGATCGACGAATATCCGATTCTCGCTGTCGCCGCCGCCTTCGCGGAAGGGGCGACCGTGATGAACGGTCTGGAAGAACTCCGCGTCAAGGAAAGCGACCGCCTCTCGGCCGTCGCCAATGGCCTCAAGCTCAATGGCGTGGATTGCGATGAGGGCGAGACGTCGCTCGTCGTTTTTTTTGGCAAAAA
[6]
  condition of soybean crop plants: thriving
  condition of volunteer corn plants: dead
